Drawing on ChEMBL document CHEMBL1137177, “Synthesis of 2',5'-oligoadenylate analogs containing an adenine acyclonucleoside and their ability to activate human RNase L” (Bioorg Med Chem Lett, 2004), this text covers EC50 for 3 compounds.

This test in a line: Effective concentration for activation of RNase L.
Broadly, the EC50 is the concentration giving half of the maximal effect. High values mean lower potency in that assay, low ones higher potency in that assay. Turning to `Nc1ncnc2c1ncn2C[C@H](OP(=O)(O)OC[C@H]1O[C@@H](n2cnc3c(N)ncnc32)[C@H](O)[C@@H]1O)[C@H](O)COP(=O)(O)O[C@@H]1[C@H](O)[C@@H](CO[PH](=O)O[C@@H]2[C@H](O)[C@@H](COP(=O)(O)O)O[C@H]2n2cnc3c(N)ncnc32)O[C@H]1n1cnc2c(N)ncnc21` (stereo partly drawn), the concentration giving a half-maximal response (EC50) came out at 1.7 nM.

`Nc1ncnc2c1ncn2[C@@H]1O[C@H](COP(=O)(O)O[C@@H]2[C@H](O)[C@@H](COP(=O)(O)O[C@@H]3[C@H](O)[C@@H](COP(=O)(O)O[C@@H]4[C@H](O)[C@@H](COP(=O)(O)O)O[C@H]4n4cnc5c(N)ncnc54)O[C@H]3n3cnc4c(N)ncnc43)O[C@H]2n2cnc3c(N)ncnc32)[C@@H](O)[C@H]1O` had a concentration for a half-maximal effect (EC50) of 1 nM.

With `Nc1ncnc2c1ncn2C[C@H](OP(=O)(O)OC[C@H]1O[C@@H](n2cnc3c(N)ncnc32)[C@H](OP(=O)(O)OC[C@H]2O[C@@H](n3cnc4c(N)ncnc43)[C@H](O)[C@@H]2O)[C@@H]1O)[C@H](O)CO[PH](=O)O[C@@H]1[C@H](O)[C@@H](COP(=O)(O)O)O[C@H]1n1cnc2c(N)ncnc21` (stereo partly drawn), the midpoint of the response, the EC50, lay at 9 nM.
